Reference: the METLIN SMRT retention time set (Domingo-Almenara et al. 2019)

Assay: gradient 5% acetonitrile 3 min, to 50% in 2 min, to 85% in 15 min, held 3 min, 100 µL/min
Conditions: column: Zorbax Extend-C18 2.1 x 50 mm; eluents: water / acetonitrile, 0.1% formic acid
In short: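 Retention times of pure standards were taken from adduct peaks that were selected by computer and manually inspected. Over 3 months, mixtures of ~100 molecules were run by HPLC–quadrupole time-of-flight mass spectrometry in positive and negative ionization mode. The Zorbax Extend-C18 column (2.1 × 50 mm, 1.8 μm) ran at 100 μL/min in water and acetonitrile, each containing 0.1% formic acid, with 40 μL dead volume and 900 μL dwell volume.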

Row | RP-LC retention time | Compound
1 | 866 s | O=C(Nc1ncc(S(=O)(=O)c2ccc([N+](=O)[O-])cc2)s1)c1ccccc1F
2 | 1210 s | Cc1cc(C)c(-c2csc(Nc3ccc(F)cn3)n2)cc1C
3 | 760 s | COC(=O)c1cc2c(=O)n(Cc3ccc(OC)c(OC)c3)ccc2nc1C
4 | 780 s | Cc1ccc(-n2c(=O)n(CC(=O)N3CCCCC3)c3cccnc32)cc1
5 | 602 s | CCn1c(CCNC(=O)c2ccccc2F)nc2cccnc21
6 | 1070 s | CSc1ccc(-c2nc3cnccn3c2Nc2cc(C)cc(C)c2)cc1
7 | 720 s | CCCn1cnc2cc(CNC(=O)c3cc4cc(Cl)ccc4[nH]3)ccc21
8 | 649 s | COc1cc(NC(=O)COc2nc(C)nc3ccccc23)cc(OC)c1OC
9 | 724 s | O=C([C@@H]1C[C@H](F)CN1C(=O)c1ccc(Cl)cc1)N1CCCCC1
10 | 596 s | Cn1nnnc1SCCNCc1ccc(Cl)cc1Cl
11 | 819 s | CC(C)CC(=O)Nc1ccc(-n2cnc(C(=O)N3CCN(c4ccccc4)CC3)c2)nc1
12 | 579 s | CCNC(=O)NCC1CCN(S(=O)(=O)C2CC2)CC1
13 | 1190 s | Cc1ccc(-c2nnc(-c3ccc(Br)cc3)o2)cc1S(=O)(=O)N1CCCC1
14 | 851 s | CN(C(=O)C1CCCN(c2ncnc3c2nc2n3CCCCC2)C1)c1cccc(Cl)c1 (centres undefined)
15 | 719 s | CN(C)C(=O)c1cccc2c1CCN2C(=O)c1ccc(F)cc1
16 | 718 s | COC(=O)Cn1c(C2CC(=O)N(c3cccc(OC)c3)C2)nc2ccccc21 (centres undefined)
17 | 639 s | NC(=O)C1CCN(C(=O)Cn2c(=O)nc(-c3ccccc3)c3cc(Cl)ccc32)CC1
18 | 716 s | O=C(Cn1cccc1-c1nc(-c2ccccc2)cs1)N1CCC(N2CCCCC2)CC1
19 | 568 s | CCn1c(COc2cccc3cccnc23)nnc1SC(F)F
20 | 678 s | Cc1csc(-c2ccc(CNC(=O)C3CCOC3)cc2)n1 (centres undefined)
21 | 1000 s | CCCC1O[C@@H]2C[C@H]3[C@@H]4CCC5=CC(=O)C=C[C@]5(C)[C@H]4[C@@H](O)C[C@]3(C)[C@]2(C(=O)CO)O1 (some centres undefined)
22 | 557 s | COc1ccc(-c2nc(NCCCN3CCOCC3)c3ccccc3n2)cc1
23 | 1100 s | CCOc1ccc(OCC)c(NC(=O)c2cn3c4c(ccc(Cl)c4c2=O)OCC3)c1

Row | RP-LC retention time | Compound
24 | 590 s | COCCc1nc(C2CCCN(C(=O)c3sccc3C)C2)n[nH]1 (centres undefined)
25 | 576 s | O=C(N[C@@H]1CN(C(=O)C2CC2)CC[C@@H]1CO)C1CC1
26 | 832 s | O=C(c1ccc2ccccc2n1)N1CCC(OCC2CC2)C1 (centres undefined)
27 | 618 s | Cc1noc(C)c1S(=O)(=O)N1CC(c2nc(-c3ccncc3)nn2C)C1
28 | 778 s | Cc1cc(NC(=O)Cn2nc3c4sc(N(C)C)nc4ncn3c2=O)ccc1Br
29 | 1110 s | Fc1ccc(-c2nnc(Cc3nc(-c4cccc(C(F)(F)F)c4)no3)o2)cc1
30 | 1050 s | COc1cccc(-c2nc(C3CC(=O)N(c4ccc(Cl)cc4)C3)no2)c1 (centres undefined)
31 | 806 s | Cc1ccc(CNC(=O)CN2C(=O)CCn3nc(-c4cn(C)c5ccccc45)cc32)o1
32 | 696 s | COc1cccc2c(Nc3cccc(C)c3)cc(C(=O)N3CCSCC3)nc12
33 | 778 s | O=C(NCc1csc(-c2cccs2)n1)C1CCN(C(=O)Cc2ccc(F)cc2)CC1
34 | 610 s | CCCNC(=O)C1CCN(c2ccc(SCC(=O)Nc3ccc4c(c3)OCO4)nn2)CC1
35 | 871 s | Cc1ccc(C(=O)NCc2nc(-c3ccc4c(c3)oc(=O)n4C(C)C)no2)cc1
36 | 832 s | CCCN(CC1CCOC1)C(=O)Nc1ccccc1Br (centres undefined)
37 | 840 s | COc1ccc2[nH]cc(CCNC(=O)c3cccc(Cl)c3)c2c1
38 | 1150 s | CCC(CC)C(c1ccc(Nc2nc3ccccc3s2)cc1)n1cncn1 (centres undefined)
39 | 824 s | COc1ccc(NC(=O)C2CCN(c3nnc(-c4ccc(OC)cc4)o3)CC2)cc1
40 | 669 s | CSc1nnc(-c2nn(C)c3c2CN(C(=O)c2cccc(N(C)C)c2)CC3)n1C
41 | 1100 s | Cc1c(S(=O)(=O)N2CCC(C)CC2)c(C)n(C)c1-c1nnc(C2CCC2)o1
42 | 866 s | COc1ccc(-n2c(=O)n(C)c(=O)c3cc(C(=O)Nc4ccc(F)cc4C)cnc32)cc1
43 | 655 s | O=C(Nc1ccccc1F)c1cc(C2CC2)on1
44 | 664 s | CCCCCN(CC(=O)N1CCNCC1)C(=O)c1cccc(Br)c1
45 | 861 s | Cc1ccccc1CSc1nnc2c(S(=O)(=O)N3CCCC3)cccn12
46 | 1300 s | Cc1cccc(-c2nc(Cn3nnc(-c4nc(-c5ccc(F)cc5)no4)c3C)c(C)o2)c1

Row | RP-LC retention time | Compound
47 | 707 s | Cc1nc(-c2cc(S(=O)(=O)N3CCC(C(=O)NC4CCCCCC4)CC3)c(C)s2)no1
48 | 910 s | CC[C@H](C)C(=O)O[C@H]1CCC=C2C=C[C@H](C)[C@H](CC[C@@H](O)C[C@@H](O)CC(=O)O)[C@H]21
49 | 932 s | Cc1ccc(S(=O)(=O)N2CCC(C)(C(=O)NCc3ccccc3)CC2)cc1
50 | 616 s | C(#Cc1ccccc1)CN1CCN(CC#Cc2ccccc2)CC1
51 | 788 s | O=C(Nc1ccc2c(c1)OCO2)N1CCC(N2CCN(Cc3ccc(F)cc3)C2=O)CC1
52 | 696 s | Cc1ccc(S(=O)(=O)Nc2cc(-c3cn4ccc(C)cc4n3)ccc2C)cc1
53 | 798 s | CCN1C(=O)c2cccnc2Sc2cc(CNC(=O)COc3ccccc3)ccc21
54 | 619 s | O=C(NC1CC1)C1CCCN(C(=O)c2ccccc2)C1 (centres undefined)
55 | 708 s | C=CCSc1nc(N)c2c(C)c(C(=O)O)sc2n1
56 | 1000 s | CCN1C(=O)COc2ccc(-c3noc(Cc4cccc(OC)c4)n3)cc21
57 | 604 s | COc1ccc(C(=O)Nc2ccc(-c3cn4ccc(C)nc4n3)cc2)cc1OC
58 | 847 s | O=C(NC(c1ccccc1)c1nnc(N2CCCCC2)o1)c1ccc2c(c1)OCO2 (centres undefined)
59 | 613 s | N=C(N)n1c(N)nc2ccccc2c1=O
60 | 1210 s | O=c1c2sccc2n(Cc2nc(-c3ccc(F)c(Cl)c3)no2)c(=O)n1Cc1ccccc1
61 | 1140 s | CCC(C)(C)NC(=O)c1c(C)oc2ccn(Cc3ccc(F)cc3)c(=O)c12
62 | 699 s | CCN(CC)C(=O)c1ccc(-c2nnc3ccc(NC(=O)C4CC4)cn23)cc1
63 | 1230 s | CCN1C(=O)COc2ccc(-c3noc(-c4ccccc4C)n3)cc21
64 | 655 s | COc1ccc(C(=O)N2CCC3(C2)C(=O)Nc2ccccc23)c(OC)c1 (centres undefined)
65 | 763 s | CSc1cccc(NC(=O)c2cn3c(n2)CSCC3)c1
66 | 1110 s | COc1ccc(N2CCN(c3cc(SCC(=O)Nc4ccccc4Cl)ncn3)CC2)cc1
67 | 663 s | COc1ccc(-c2cc(N3CCN(C(=O)Nc4ccc(OC)cc4OC)CC3)ncn2)cc1
68 | 966 s | Cc1nn(C)c(=O)c2cc(S(=O)(=O)NCCC3=CCCCC3)cn12
69 | 1240 s | CC(C)c1ccc(-n2ccnc(NC(=O)Nc3cccc(Cl)c3)c2=O)cc1

Row | RP-LC retention time | Compound
70 | 759 s | O=c1ccc(S(=O)(=O)N2CCOCC2)cn1Cc1ccc(F)cc1
71 | 615 s | COc1cccc(OC)c1OCC(O)CN1CCN(c2cc(Cl)ccc2C)CC1 (centres undefined)
72 | 767 s | O=C(Nc1ccc(S(=O)(=O)N2CCOCC2)cc1)c1ccc(Cl)s1
73 | 1060 s | O=C(Nc1ccc2c(c1)OCO2)C1CCCN(c2ncc(-c3ccc(F)cc3)cn2)C1 (centres undefined)
74 | 733 s | O=C(c1ccc2c(c1)Sc1ncccc1C(=O)N2C1CC1)N1CCCCC1
75 | 627 s | O=C(Nc1ccccc1Cl)N1CC(F)(F)C[C@H]1CN1CCCC1
76 | 791 s | Cc1cc(C(=O)N2CCCCC2)c2c(=O)n(CC(=O)Nc3cccc(C#N)c3)c(=O)n(C)c2n1
77 | 1020 s | CCCCNC(=O)Cn1nc(C)c2nn(-c3ccc(Cl)cc3)c(-n3cccc3)c2c1=O
78 | 780 s | COc1ccc(NC(=O)Cn2c(=O)c(CCC(=O)NCC(C)C)nc3ccccc32)c(OC)c1
79 | 1180 s | CCN(CC)C(=O)c1cc2c(s1)N(CC1CC1)CCCC2
80 | 671 s | CC(C)n1c(CCNC(=O)c2ccc(F)cc2F)nc2cccnc21
81 | 599 s | Cn1cc(CCN2CCC(C(=O)NCc3cccc(F)c3)CC2)c2cccnc21
82 | 922 s | Cc1cc2nn(CC(=O)N(C)c3ccccc3)c(=O)n2c(Nc2ccccc2C)n1
83 | 610 s | CNC(=O)c1cncc(OC(C)C)c1
84 | 581 s | CC(=O)Nc1nc(N2CCC(C(=O)NCc3cccnc3)CC2)sc1C(=O)N1CCCC1
85 | 733 s | Cc1cnc(C(=O)NC2C[C@H]3CC[C@@H](C2)N3C(=O)C2CCCCCC2)cn1 (some centres undefined)
86 | 587 s | CSc1cccc(NC(=O)Cn2c(C)nc3c(c2=O)CN(Cc2ccccc2)CC3)c1
87 | 1190 s | CCCCc1nc(N2CCN(C(=O)c3ccco3)CC2)c(C#N)c2c1COC(C)(C)C2
88 | 768 s | Cc1ccc(NC(=O)CN2C(=O)CCS(=O)(=O)c3ccccc32)c(C)c1
89 | 1060 s | CC(NC(=O)C1CCCN(c2nccnc2Sc2ccccc2)C1)c1ccccc1 (centres undefined)
